Among the data in US9200001B2, “Triazolyl PDE10 inhibitors” (Merck Sharp & Dohme Corp., priority 2011, dated 2015) are Ki values, retold here.

The structures appear in SMILES notation. pKi: −log10 of the molar value.

In the assay the target is human PDE10A2 (Homo sapiens (Human), UniProt Q9Y233). Briefly: PDE10 fluorescence polarization (IMAP FP) inhibition assay. The class given is biochemical. The note with it: FAM-labeled cAMP 50 nM, room temperature, read-out: PDE10a Ki. An outline of the steps: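 Cytoplasmic lysate of AD293 cells transiently expressing human PDE10A2, incubated 30 minutes at room temperature with 50 nM FAM-labeled cAMP in Tris pH 7.2 with MgCl2. Read by IMAP fluorescence polarization; 0% inhibition set by 1% DMSO, 100% by a reference PDE10 inhibitor.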
human PDE10A2, sequence (Q9Y233 267-1055): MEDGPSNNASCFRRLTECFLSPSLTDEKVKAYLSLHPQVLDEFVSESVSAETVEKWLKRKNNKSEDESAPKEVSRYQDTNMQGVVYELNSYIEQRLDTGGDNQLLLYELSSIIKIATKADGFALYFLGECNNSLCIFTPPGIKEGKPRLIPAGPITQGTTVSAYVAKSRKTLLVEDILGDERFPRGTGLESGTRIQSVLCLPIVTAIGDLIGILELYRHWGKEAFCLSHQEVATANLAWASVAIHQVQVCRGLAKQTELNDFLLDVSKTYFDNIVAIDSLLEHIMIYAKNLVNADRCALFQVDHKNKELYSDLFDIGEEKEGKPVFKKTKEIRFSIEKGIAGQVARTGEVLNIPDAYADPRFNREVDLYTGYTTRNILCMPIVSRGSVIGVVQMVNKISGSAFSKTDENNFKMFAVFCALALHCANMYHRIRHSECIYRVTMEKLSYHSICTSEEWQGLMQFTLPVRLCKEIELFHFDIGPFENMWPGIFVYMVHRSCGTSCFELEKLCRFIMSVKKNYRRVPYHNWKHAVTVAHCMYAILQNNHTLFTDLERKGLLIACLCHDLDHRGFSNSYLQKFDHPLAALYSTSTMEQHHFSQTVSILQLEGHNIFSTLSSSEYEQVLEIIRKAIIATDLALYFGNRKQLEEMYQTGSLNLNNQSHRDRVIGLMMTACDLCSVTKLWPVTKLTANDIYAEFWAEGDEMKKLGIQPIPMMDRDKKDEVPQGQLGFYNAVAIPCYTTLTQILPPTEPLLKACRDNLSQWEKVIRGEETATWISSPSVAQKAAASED
`Cc1nc([C@H]2C[C@@H]2c2nc3ccccc3n2C)cc(-n2nc(C)nc2C2CCCCC2)n1` (stereo in doubt) [Cpd 79, 2-{2-[6-(5-cyclohexyl-3-methyl-1H-1,2,4-triazol-1-yl)-2-methylpyrimidin-4-yl]cyclopropyl}-1-methyl-1H-benzimidazole]: the pKi was 8.60. Next, `COc1ccc(Cc2nc(C)nn2-c2cc(CCc3ccc(C)cn3)nc(C)n2)cc1OC` [Cpd 5, 4-(5-(3,4-dimethoxybenzyl)-3-methyl-1H-1,2,4-triazol-1-yl)-2-methyl-6-(2-(5-methylpyridin-2-yl)ethyl)pyrimidine]: 9.85; `Cc1cc([C@H]2C[C@@H]2c2nc3ccccc3n2C)cc(-n2nc(C)nc2C)n1` (relative stereo) [Cpd 110, trans-2-{2-[2-(3,5-dimethyl-1H-1,2,4-triazol-1-yl)-6-methylpyridin-4-yl]cyclopropyl}-1-methyl-1H-benzimidazole]: 7.74; `Cc1nc([C@@H]2C[C@H]2c2nc3ccccc3n2C)cc(-n2nc(C)nc2C2CCOCC2)n1` [Cpd 97, 1-methyl-2-[(1R,2R)-2-{2-methyl-6-[3-methyl-5-(tetrahydro-2H-pyran-4-yl)-1H-1,2,4-triazol-1-yl]pyrimidin-4-yl}cyclopropyl]-1H-benzimidazole]: 8.96. Next, `Cc1nc(C)n(-c2cc([C@@H]3C[C@H]3c3nc4ccccc4n3C)nc(OCCO)n2)n1` [Cpd 64, 2-({4-(3,5-dimethyl-1H-1,2,4-triazol-1-yl)-6-[(1R,2R)-2-(1-methyl-1H-benzimidazol-2-yl)cyclopropyl]pyrimidin-2-yl}oxy)ethanol]: 8.96. With `Cc1nc(C)n(-c2cc([C@@H]3C[C@H]3c3nc4ccccc4n3C)nc(OC3CCC3)n2)n1` [Cpd 136, 2-((1R,2R)-2-(2-cyclobutoxy-6-(3,5-dimethyl-1H-1,2,4-triazol-1-yl)pyrimidin-4-yl)cyclopropyl)-1-methyl-1H-benzo[d]imidazole] the figure was 9.38; with `Cc1nc(C)n(-c2cc([C@H]3C[C@@H]3c3nc4ccccc4n3C)nc(N3CCN(C)CC3)n2)n1` (relative stereo) [Cpd 121, trans-2-{2-[6-(3,5-dimethyl-1H-1,2,4-triazol-1-yl)-2-(4-methylpiperazin-1-yl)pyrimidin-4-yl]cyclopropyl}-1-methyl-1H-benzimidazole], 8.51; with `Cc1nc(C)n(-c2cc([C@@H]3C[C@H]3c3nc4ccccc4n3C)nc(OCC3(C)CC3)n2)n1` [Cpd 137, 2-((1R,2R)-2-(6-(3,5-dimethyl-1H-1,2,4-triazol-1-yl)-2-((1-methylcyclopropyl)methoxy)pyrimidin-4-yl)cyclopropyl)-1-methyl-1H-benzo[d]imidazole], 9.08. As for `Cc1nc([C@@H]2C[C@H]2c2nc3ccccc3n2Cc2ccncc2)cc(-n2nc(C)nc2C)n1` (stereo in doubt) [Cpd 76, 2-{2-[6-(3,5-dimethyl-1H-1,2,4-triazol-1-yl)-2-methylpyrimidin-4-yl]cyclopropyl}-1-(pyridin-4-ylmethyl)-1H-benzimidazole], the pKi was 7.74.

As for `Cc1nc(C2CC2c2nc3ccc(OC(F)F)cc3[nH]2)cc(-n2nc(C)nc2C)n1` (stereo not shown) [Cpd 60, 6-(difluoromethoxy)-2-(2-(6-(3,5-dimethyl-1H-1,2,4-triazol-1-yl)-2-methylpyrimidin-4-yl)cyclopropyl)-1H-benzo[d]imidazole], the pKi was 7.24. With `COc1ccc(Cc2nc(C)nn2-c2cc(C3CC3c3nnc(C)s3)nc(C)n2)cc1OC` (stereo not shown) [Cpd 29, 2-(2-(6-(5-(3,4-dimethoxybenzyl)-3-methyl-1H-1,2,4-triazol-1-yl)-2-methylpyrimidin-4-yl)cyclopropyl)-5-methyl-1,3,4-thiadiazole] the figure was 8.01; with `Cc1nc([C@H]2C[C@@H]2c2nc3ccccc3n2C)cc(-n2nc(C)nc2C2CC2)n1` (stereo in doubt) [Cpd 85, 2-{2-[6-(5-cyclopropyl-3-methyl-1H-1,2,4-triazol-1-yl)-2-methylpyrimidin-4-yl]cyclopropyl}-1-methyl-1H-benzimidazole], 8.54. With `COc1ccc(Cc2nc(C)nn2-c2cc(C3CC3c3nc4ccccc4[nH]3)nc(C)n2)cc1OC` (stereo not shown) [Cpd 38, 2-(2-(6-(5-(3,4-dimethoxybenzyl)-3-methyl-1H-1,2,4-triazol-1-yl)-2-methylpyrimidin-4-yl)cyclopropyl)-1H-benzo[d]imidazole] the figure was 11.30; with `Cc1nc(C)n(-c2cc([C@@H]3C[C@H]3c3nc4ccccc4n3C)nc(N3CC(F)(F)C3)n2)n1` [Cpd 132, 2-((1R,2R)-2-(2-(3,3-difluoroazetidin-1-yl)-6-(3,5-dimethyl-1H-1,2,4-triazol-1-yl)pyrimidin-4-yl)cyclopropyl)-1-methyl-1H-benzo[d]imidazole], 9.12; with `COC[C@H](C)Oc1nc([C@@H]2C[C@H]2c2nc3ccccc3n2C)cc(-n2nc(C)nc2C)n1` [Cpd 67, 2-[(1R,2R)-2-{6-(3,5-dimethyl-1H-1,2,4-triazol-1-yl)-2-[(1S)-2-methoxy-1-methylethoxy]pyrimidin-4-yl]cyclopropyl}-1-methyl-1H-benzimidazole], 9.05. With `Cc1nc(C)n(-c2cc([C@@H]3C[C@H]3c3nc4ccccc4n3C)nc(C#N)n2)n1` [Cpd 61, 4-(3,5-dimethyl-1H-1,2,4-triazol-1-yl)-6-[(1R,2R)-2-(1-methyl-1H-benzimidazol-2-yl)cyclopropyl]primidine-2-carbonitrile] the figure was 10.07; with `CCc1nc(CC)n(-c2cc([C@@H]3C[C@H]3c3nc4ccccc4n3C)nc(C)n2)n1` [Cpd 106, 2-{(1R,2R)-2-[6-(3,5-diethyl-1H-1,2,4-triazol-1-yl)-2-methylpyrimidin-4-yl]cyclopropyl}-1-methyl-1H-benzimidazole], 8.55. As for `COCc1nc(C)nn1-c1cc([C@H]2C[C@@H]2c2nc3ccccc3n2C)nc(C)n1` (stereo in doubt) [Cpd 86, 2-[2-{6-[5-(methoxymethyl)-3-methyl-1H-1,2,4-triazol-1-yl]-2-methylpyrimidin-4-yl}cyclopropyl]-1-methyl-1H-benzimidazole], the pKi is 8.85. With `Cc1nc([C@@H]2C[C@H]2c2cc3n(n2)CCCC3)cc(-n2nc(C)nc2C)n1` [Cpd 107, 2-{(1R,2R)-2-[6-(3,5-dimethyl-1H-1,2,4-triazol-1-yl)-2-methylpyrimidin-4-yl]cyclopropyl}-4,5,6,7-tetrahydropyrazolo[1,5-a]pyridine] the figure was 7.22; with `Cc1nc([C@@H]2C[C@H]2c2nc3ccccc3n2C)cc(-n2nc(C)nc2C(C)(C)C)n1` [Cpd 100, 2-{(1R,2R)-2-[6-(5-tert-butyl-3-methyl-1H-1,2,4-triazol-1-yl)-2-methylpyrimidin-4-yl]cyclopropyl}-1-methyl-1H-benzimidazole], 7.86; with `Cc1nc([C@@H]2C[C@H]2c2nc3ccccc3n2C)cc(-n2nc(C)nc2CF)n1` [Cpd 93, 2-[(1R,2R)-2-{6-[5-(fluoromethyl)-3-methyl-1H-1,2,4-triazol-1-yl]-2-methylpyrimidin-4-yl}cyclopropyl]-1-methyl-1H-benzimidazole], 8.51.

On to `Cc1nc(OCc2ccc3ccccc3n2)cc(-n2nc(C)nc2Cc2nc(C)sc2C)n1` [Cpd 9, 2,5-dimethyl-4-((3-methyl-1-(2-methyl-6-(quinolin-2-ylmethoxy)pyrimidin-4-yl)-1H-1,2,4-triazol-5-yl)methyl)thiazole], for which the pKi was 7.21.
